Assay results taken from patent US6479435B1, “Diaryl ethers and processes for their preparation and herbicidal and desiccant compositions containing them” (ISK Americas Incorporated, priority 1997, dated 2002).

What was measured:
Assay type in all cases: in vivo
[1] = system: Johnsongrass (Sorghum halepense, SORHA); test: Pre-emerge greenhouse herbicide test, phytotoxicity rating; settings: 14 days after application, rating scale 0-100
Method in brief: (§1)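 Seeds sown in sandy loam one day before track-sprayer application of acetone solutions at 125–1000 g ai/ha (187 l/ha), then surface-watered to incorporate and bottom-watered. Injury scored visually at 14 days on a 0–100 scale (0 no damage, 100 complete death).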

[2] = system: barnyardgrass (Echinochloa crusgalli, ECHCG); test: as above; settings: 14 days after application, rating scale 0-100
Method in brief: as §1

[3] = system: common ragweed (Ambrosia artemisiifolia L., AMBEL); test: as above; settings: 14 days after application, rating scale 0-100
Method in brief: as §1

[4] = system: green foxtail (Setaria viridis, SETVI); test: as above; settings: 14 days after application, rating scale 0-100
Method in brief: as §1

[5] = system: ivyleaf morningglory (Ipomoea hederacea, IPOHE); test: as above; settings: 14 days after application, rating scale 0-100
Method in brief: as §1

[6] = system: lambsquarters (Chenopodium album, CHEAL); test: as above; settings: 14 days after application, rating scale 0-100
Method in brief: as §1

[7] = system: large crabgrass (Digitaria sanguinalis, DIGSA); test: as above; settings: 14 days after application, rating scale 0-100
Method in brief: as §1

[8] = system: redroot pigweed (Amaranthus retroflexus, AMARE); test: as above; settings: 14 days after application, rating scale 0-100
Method in brief: as §1

[9] = system: sicklepod (Cassia obtusifolia, CASOB); test: as above; settings: 14 days after application, rating scale 0-100
Method in brief: as §1

[10] = system: velvetleaf (Abutilon theophrasti, ABUTH); test: as above; settings: 14 days after application, rating scale 0-100
Method in brief: as §1

[11] = system: field corn (Zea mays L., var. Dekalb 535, CORN); test: Pre-emerge greenhouse test, crop damage rating; settings: 14 days after application, rating scale 0-100
Method in brief: as §1

[12] = system: upland rice (Oryza sp., var.Tebonnet, RICE); test: Pre-emerge greenhouse test, crop damage rating; settings: 14 days after application, rating scale 0-100
Method in brief: as §1

[13] = system: soybean (Glycine max L., var. Pella 86, SOY); test: Pre-emerge greenhouse test, crop damage rating; set-up: key to SOY crop damage rating: 0 = no damage, 100 = complete death of all plants; settings: 14 days after application, rating scale 0-100
Method in brief: as §1

[14] = system: common ragweed (Ambrosia artemisiifolia L., AMBEL); test: Post-emerge greenhouse herbicide test, phytotoxicity rating; settings: 14 days after application, scale 0-100
Method in brief: (§2)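 Plants at the 2-3 leaf stage, sown 8-21 days earlier, were track-sprayed post-emergence with compound in acetone plus 0.25% v/v non-ionic surfactant at 63-1000 g ai/ha (187 l/ha). Damage was rated at 14 days on a 0-100 scale (0 none, 100 all plants dead), for both crop injury and weed control.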

[15] = system: Johnsongrass (Sorghum halepense, SORHA); test: as above; settings: 14 days after application, scale 0-100
Method in brief: as §2

[16] = system: barnyardgrass (Echinochloa crusgalli, ECHCG); test: as above; settings: 14 days after application, scale 0-100
Method in brief: as §2

[17] = system: green foxtail (Setaria viridis, SETVI); test: as above; settings: 14 days after application, scale 0-100
Method in brief: as §2

[18] = system: ivyleaf morningglory (Ipomoea hederacea, IPOHE); test: as above; settings: 14 days after application, scale 0-100
Method in brief: as §2

[19] = system: lambsquarters (Chenopodium album, CHEAL); test: as above; settings: 14 days after application, scale 0-100
Method in brief: as §2

[20] = system: large crabgrass (Digitaria sanguinalis, DIGSA); test: as above; settings: 14 days after application, scale 0-100
Method in brief: as §2

[21] = system: redroot pigweed (Amaranthus retroflexus, AMARE); test: as above; settings: 14 days after application, scale 0-100
Method in brief: as §2

[22] = system: velvetleaf (Abutilon theophrasti, ABUTH); test: as above; settings: 14 days after application, scale 0-100
Method in brief: as §2

[23] = system: field corn (Zea mays L., var. Dekalb 535, CORN); test: Post-emerge greenhouse test, crop damage rating; settings: 14 days after application, scale 0-100
Method in brief: as §2

[24] = system: upland rice (Oryza sp., var.Tebonnet, RICE); test: Post-emerge greenhouse test, crop damage rating; settings: 14 days after application, scale 0-100
Method in brief: as §2

[25] = system: soybean (Glycine max L., var. Pella 86, SOY); test: Post-emerge greenhouse test, crop damage rating; set-up: key to crop damage rating SOY: 0-100 scale: 0 = no damage, 100 = complete death of all plants; settings: 14 days after application, scale 0-100
Method in brief: as §2

CS(=O)(=O)c1cccnc1Oc1cc(-n2c(=O)n3n(c2=S)CCCC3)c(F)cc1Cl [Compound 8-21]
90: ECHCG phytotoxicity rating ([2]; Rate 500 g al/ha) | AMBEL phytotoxicity rating ([3]; Rate 500 g al/ha) | IPOHE phytotoxicity rating ([5]; Rate 125 g al/ha) | phytotoxicity rating AMBEL ([14]; rate 500 g ai/ha) | phytotoxicity rating IPOHE ([18]; rate 63 g ai/ha) | crop damage rating SOY ([25]; rate 63 g ai/ha)
100: SORHA phytotoxicity rating ([1]; Rate 500 g al/ha) | SETVI phytotoxicity rating ([4]; Rate 500 g al/ha) | IPOHE phytotoxicity rating ([5]; Rate 500 g al/ha) | CHEAL phytotoxicity rating ([6]; Rate 125 g al/ha) | CHEAL phytotoxicity rating ([6]; Rate 500 g al/ha) | DIGSA phytotoxicity rating ([7]; Rate 500 g al/ha) | AMARE phytotoxicity rating ([8]; Rate 125 g al/ha) | AMARE phytotoxicity rating ([8]; Rate 500 g al/ha) | CASOB phytotoxicity rating ([9]; Rate 500 g al/ha) | ABUTH phytotoxicity rating ([10]; Rate 125 g al/ha) | ABUTH phytotoxicity rating ([10]; Rate 500 g al/ha) | phytotoxicity rating IPOHE ([18]; rate 500 g ai/ha) | phytotoxicity rating CHEAL ([19]; rate 500 g ai/ha) | phytotoxicity rating AMARE ([21]; rate 63 g ai/ha) | phytotoxicity rating AMARE ([21]; rate 500 g ai/ha) | phytotoxicity rating ABUTH ([22]; rate 63 g ai/ha) | phytotoxicity rating ABUTH ([22]; rate 500 g ai/ha) | crop damage rating SOY ([25]; rate 500 g ai/ha)
70: AMBEL phytotoxicity rating ([3]; Rate 125 g al/ha) | DIGSA phytotoxicity rating ([7]; Rate 125 g al/ha) | CASOB phytotoxicity rating ([9]; Rate 125 g al/ha) | phytotoxicity rating SORHA ([15]; rate 500 g ai/ha) | phytotoxicity rating ECHCG ([16]; rate 500 g ai/ha)
50: SORHA phytotoxicity rating ([1]; Rate 125 g al/ha) | crop damage rating RICE ([24]; rate 63 g ai/ha)
40: ECHCG phytotoxicity rating ([2]; Rate 125 g al/ha) | RICE crop damage rating ([12]; Rate 125 g al/ha) | phytotoxicity rating SETVI ([17]; rate 500 g ai/ha)
95: RICE crop damage rating ([12]; Rate 500 g al/ha)
10: CORN crop damage rating ([11]; Rate 500 g al/ha) | phytotoxicity rating SORHA ([15]; rate 63 g ai/ha) | crop damage rating CORN ([23]; rate 63 g ai/ha)
0: CORN crop damage rating ([11]; Rate 125 g al/ha) | SOY crop damage rating ([13]; Rate 125 g al/ha) | phytotoxicity rating ECHCG ([16]; rate 63 g ai/ha) | phytotoxicity rating SETVI ([17]; rate 63 g ai/ha) | phytotoxicity rating DIGSA ([20]; rate 63 g ai/ha) | crop damage rating CORN ([23]; rate 500 g ai/ha)
60: phytotoxicity rating AMBEL ([14]; rate 63 g ai/ha) | phytotoxicity rating DIGSA ([20]; rate 500 g ai/ha) | crop damage rating RICE ([24]; rate 500 g ai/ha)
99: SETVI phytotoxicity rating ([4]; Rate 125 g al/ha) | phytotoxicity rating CHEAL ([19]; rate 63 g ai/ha)
80: SOY crop damage rating ([13]; Rate 500 g al/ha)
